The target in assay [1] is T1, Arachidonate 5-lipoxygenase (Sus scrofa) (UniProt K7GQZ4).
T1 sequence (whole entry): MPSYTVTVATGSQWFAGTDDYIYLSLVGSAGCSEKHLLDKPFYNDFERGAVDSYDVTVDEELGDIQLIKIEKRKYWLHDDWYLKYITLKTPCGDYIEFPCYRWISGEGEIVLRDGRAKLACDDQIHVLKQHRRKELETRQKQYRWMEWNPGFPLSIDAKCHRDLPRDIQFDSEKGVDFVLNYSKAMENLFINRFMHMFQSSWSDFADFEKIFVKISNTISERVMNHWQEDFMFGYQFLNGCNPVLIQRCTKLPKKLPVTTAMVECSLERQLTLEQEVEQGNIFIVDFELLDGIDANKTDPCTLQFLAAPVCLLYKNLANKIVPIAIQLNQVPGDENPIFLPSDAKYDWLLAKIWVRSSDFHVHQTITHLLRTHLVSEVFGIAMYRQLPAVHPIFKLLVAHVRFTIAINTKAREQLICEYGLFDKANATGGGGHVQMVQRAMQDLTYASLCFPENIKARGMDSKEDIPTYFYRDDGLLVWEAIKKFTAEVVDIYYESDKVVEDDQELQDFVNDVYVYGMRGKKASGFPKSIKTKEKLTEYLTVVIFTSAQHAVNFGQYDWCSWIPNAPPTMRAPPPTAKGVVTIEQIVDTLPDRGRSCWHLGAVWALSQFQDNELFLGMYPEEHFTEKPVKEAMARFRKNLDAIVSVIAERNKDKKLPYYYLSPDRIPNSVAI
The experiment in a line: Potency index, ratio of coumestrol IC50 to compound IC50 for 5-lipoxygenase in pig leukocytes. In kind it is cell-based.

For assay [2], the target named is T2, Arachidonate 5-lipoxygenase (Sus scrofa, UniProt K7GQZ4).
T2 sequence (K7GQZ4 whole entry): T1 sequence (whole entry)
The experiment in a line: Inhibition of 5-lipoxygenase in pig leukocytes using arachidonic acid as substrate. It is filed as cell-based.

These results are taken from ChEMBL document CHEMBL3872281, “A one-pot laccase-catalysed synthesis of coumestan derivatives and their anticancer activity” (Bioorg Med Chem, 2017).

Structures are written as SMILES.

By IC50 is commonly meant the midpoint of a concentration-inhibition curve. Lower therefore signals higher potency. Regarding `COc1cc(O)c2c(c1)oc(=O)c1c3cc(O)c(O)cc3oc21` [WEDELOLACTONE], the Ratio IC50 in assay [1] worked out at 40. Also, the IC50 in assay [2] was determined as 2500 nM.
